Patent US20260062449A1, “PEPTIDE COMPOSITIONS AND METHODS OF USE” (ONL Therapeutics, Inc., priority 2022, published 2026)
No end group written: not given here.

system: Jurkat cells; experiment: Cell viability preservation in vitro: cell confluence of Jurkat cells after 24-hour incubation with FasL; type: cell-based; details: recombinant His-tagged FasL along with anti-His antibody
Description: Compounds (oligopeptides) of the present disclosure were assayed for their ability to effect cell confluence following a 24-hour incubation. Jurkat cells were incubated for 24 hours with varying concentrations of compound (i.e., 200, 66.7, 22.2, 7.4, 2.5, 0.8, 0.3, and 0.1) and with or without recombinant His-tagged FasL along with an anti-His antibody. After the 24-hour incubation, cell confluence was quantified using an S3 Incucyte Imaging System (Sartorius) and a Vi-CELL XR Cell Viability Analyzer (Beckman Coulter) and compared to controls (cells incubated in the absence of compound and cells incubated with a known Fas inhibitor).

Substance	Activity: lowest concentration that prevented loss of cell confluency
HHIYLGAVNYIY-NH2 [Compound A, reference compound]	A (cell protection at x < 1.0 μM)
NH2-HHIAAGAVNYIY-C(O)NH2 (H-HHIAAGAVNYIY-NH2) [Compound 6]	B (cell protection at 1.0 < x < 10.0 μM)
NH2-HHIYLGGGGGNYIY-C(O)NH2 (H-HHIYLGGGGGNYIY-NH2) [Compound 7]	B (cell protection at 1.0 < x < 10.0 μM)
NH2-HHIYLGSSSSNYIY-C(O)NH2 (H-HHIYLGSSSSNYIY-NH2) [Compound 8]	B (cell protection at 1.0 < x < 10.0 μM)
NH2-HKIYLGAVNYIY-C(O)NH2 (H-HKIYLGAVNYIY-NH2) [Compound 11]	B (cell protection at 1.0 < x < 10.0 μM)
NH2-KHIYLGAVNYIY-C(O)NH2 (H-KHIYLGAVNYIY-NH2) [Compound 10]	A (cell protection at x < 1.0 μM)
NH2-KKIYLGAVNYIY-C(O)NH2 (H-KKIYLGAVNYIY-NH2) [Compound 9]	B (cell protection at 1.0 < x < 10.0 μM)

system: not listed separately; experiment: Aqueous solubility / solution behaviour of Met-12; type: physicochemical; details: not given
Description: Experiments have clearly shown that Met-12 has to be dosed as a solution, both in vitro and in vivo, to show optimal activity, and producing such solutions in a largely aqueous medium has proven to be very difficult, especially under conditions which are acceptable for intravitreal injection. Dosing of suspensions or gels of Met-12 leads to major losses of potency. […] Despite extensive development work, the only solution formulations of Met-12 which have been found involve some very low pH solution injections (≤pH 2.8) or neat DMSO injections, all of which are suboptimal for intravitreal injections.

Substance	aqueous solubility
HHIYLGAVNYIY [Met-12, H^60HIYLGAVNYIY^71]	extremely poor aqueous solubility

same assay, conditions: apparently clear 10 rang/mL solution in 20 mM citrate buffer pH 2.8

Substance	loss of material upon filtration
HHIYLGAVNYIY [Met-12, H^60HIYLGAVNYIY^71]	considerable loss of material upon filtration
